US20230346901A1, “METHODS AND VACCINE COMPOSITIONS TO TREAT CANCERS” (priority 2019, published 2023)
Ends that are not written are not given here.

Legend:
[1] = Organ toxicity in peptide-treated APL mice; type: in vivo, FVB/N mice; details: either treatment schedule (data not shown)
Method: APL blasts (provided by Drs. M. Bishop and S. Kogan, UCSF, USA) origin from the spleen of mice bearing the human PML-RARA cDNA construct driven by a myeloid linage specific promoter (hMRP8) in the FVB/N inbred strain of mice. For amplification, cells (1×105 or 1×106) were suspended in PBS and transplanted by intravenous (i.v) tail injection (200 uL) into female syngeneic recipient mice (5-6 weeks old). Establishment of leukemia was assessed by a decrease in blood platelet counts approx. 3 weeks after graft. Spleen cells from a primary recipient were collected, washed, re-suspended in PBS and injected (10^4 cells/mouse; 200 uL) into the tail veins of male FVB/N mice (7-8 weeks old) for experiments. For direct treatment experiments, mice were treated daily or every other day (i.p) with normal saline, RT53 or RT39 at 2.4 mg/kg in normal saline starting from day 10 or day 20 for a total of 7 injections.
To explore the in vivo therapeutic potential of RT53 as a treatment of acute leukemia, we used a well-characterized preclinical APL model bearing the human PML-RARA oncogene which mimics human APL, both in its characteristics and its response to conventional therapeutic drugs such as ATRA and arsenic trioxide^9, 10. In this model, 100% of the syngeneic mice (FVB/N) transplanted with 104 primary recipients' spleen blasts developed an APL and succumbed within 30 days (FIG. 1C).

[2] = tested on: normal spleen cells; assay: Electron microscopy ultrastructural analysis, normal spleen cells; type: cell-based, mouse; details: normal spleen cells exposed to RT53 (data not shown)
Method: Samples were fixed in 3% glutaraldehyde in phosphate buffer, pH 7.4 for 1 hour, washed, post-fixed with 1% osmium tetroxide in 0.1 M phosphate buffer and then gradually dehydrated in 70, 90 and 100% ethanol. After 10 min in a 1:2 mixture of epoxy propane and epoxy resin and 10 min in epon, samples were embedded in epoxy resin and polymerized at 60° C. for 24 h. After polymerisation, ultrathin sections of 90 nm were cut with an ultra-microtome (Reichert ultracut S), stained with uranyl acetate and Reynold's lead and observed with a transmission electron microscope (JEOL 1011). Acquisition was performed with a Gatan Orius 1000 CCD camera.
To test the antileukemic properties of RT53, we first exposed human all-trans retinoic acid (ATRA)-sensitive (NB4) and ATRA-resistant (UF-1) acute promyelocytic leukemia (APL) cells as well as mouse APL spleen blast cells derived from hMRP8-PML-RARA transgenic mice9 to increasing concentrations of RT53.

[3] = tested on: spleen cells from healthy mice; type: cell-based, mouse; details: up to the highest concentration tested, 20 h
Method: FIG. 1: RT53 treatment increases APL mice survival. (A) The indicated cells were left untreated or exposed to increasing concentrations of RT53 for 20 h. Cell death induced by peptide treatment was measured by lactate dehydrogenase (LDH) release. Data are means±s.e.m. (n=3). (B) APL spleen cells were exposed to 5 μM of RT53 in the presence or absence of 50 μM zVAD-fmk or 50 μM Necrostatin-1 (Nec-1) for 3 h. Necrotic cell death was monitored by lactate dehydrogenase (LDH) release from cells into the culture medium. The obtained values were normalized to those of the maximum LDH released (completely lysed) control. Data are means±s.e.m. (n=3). (C) 104 APL blasts were inoculated intravenously (i.v.) into FVB/N mice at day zero. […] Survival curves were analyzed with the Mantel-Cox test. […] Survival curves were analyzed with the Mantel-Cox test.
Release of lactate dehydrogenase (LDH) and ATP in the culture medium were assessed with the CytoTox 96 Non-Radioactive Cytotoxicity Assay and Enliten ATP Assay, respectively (Promega, Madison, WI, USA). HMGB1 release in the culture medium was assessed with the HMGB1 ELISA kit (IBL International, Hamburg, Germany). […]

[4] = tested on: U2OS cells; assay: Immunogenic cell death markers (HMGB1, ATP release) in U2OS cells; type: cell-based
Method: ((A) U2OS cells were left untreated or exposed to increasing concentrations of RT39 for 3 h. Extracellular HMGB1 was then measured in the culture supernatant by an ELISA assay. Data are means±s.e.m. (n=3). (B) U2OS cells were left untreated or exposed to increasing concentrations of RT39 for 3 h. Extracellular ATP was then measured in the culture supernatant using an ATP-bioluminescence assay. Data are means±s.e.m. (n=3).
Release of lactate dehydrogenase (LDH) and ATP in the culture medium were assessed with the CytoTox 96 Non-Radioactive Cytotoxicity Assay and Enliten ATP Assay, respectively (Promega, Madison, WI, USA). HMGB1 release in the culture medium was assessed with the HMGB1 ELISA kit (IBL International, Hamburg, Germany).

[5] = U2OS cells, increasing concentrations of RT39, 3 h

Sequence | organ toxicity (macroscopic or microscopic) [1] | cellular integrity by ultrastructural analysis [2] | cell death by LDH release in normal cells [3] | extracellular ATP release (ATP-bioluminescence) [4, 5] | extracellular HMGB1 release (ELISA) [4, 5] | calreticulin exposure ([4]; stated in figure title only, cells not given)
RQIKIWFQNRRMKWKKAKLNAEKLKDFKIRLQYFARGLQVYIRQLRLALQGKT [RT53] | No organ toxicity | No changes in cellular integrity or ruptured cells could be detected | no cell death was detected |  |  | 
RQIKIWFQNRRMKWKKLQYFARGLQVYIRQLRLALQGKT (Synthetic Fusion protein RT39) [fusion of penetratin with AAC-11 leucine-zipper derived peptide (377-399)] |  |  |  | triggers calreticulin exposure as well as the release of HMGB1 and ATP | triggers calreticulin exposure as well as the release of HMGB1 and ATP | triggers calreticulin exposure
